The record followed here is publication PMC13198257, “An aerosolized dual-action autotaxin inhibitor-PPARγ agonist for the treatment of pulmonary fibrosis” (Cell Reports Medicine, 2026).

The test system of data set [1] is BLM-induced fibrotic mouse PCLSs. As to the kind of experiment: Fibrotic mouse precision-cut lung slices (PCLS). Type of data set: cell-based. Particulars: 30 μΜ, 72 h. As for the experimental part:
Fourteen days after administration, mice were euthanized and lungs were perfused with PBS. Lungs were subsequently inflated through the trachea with pre-warmed (40-42 °C) low melting-point agarose. Following agarose solidification, the left lateral lobe was excised and sectioned into 300μm-thick slices using a vibratome machine. Lung slices were placed in 12- or 24-well culture plates containing complete DMEM supplemented with 1% penicillin/streptomycin, and 0.1% amphotericin B, and maintained at 37 °C, 5% CO2 and ≥95% relative humidity. After an overnight equilibration period, slices were treated with either GLPG-1690 (30μM) or compound 5 (30μM) for 72 h. Culture medium was refreshed every 24 h throughout the treatment period. For downstream gene expression analysis, three slices were pooled per sample for RNA extraction. Control PCLS were generated from saline-treated mice. […] Fluorophore-conjugated secondary antibody (1:500) was applied for 1 h at room temperature, and nuclei were counterstained with DAPI. Brightfield and fluorescence imaging were performed using the Olympus VS200 slide scanner.

The next data set concerns 3T3-L1. As to the kind of experiment: Differentiation of 3T3-L1 fibroblasts into adipocytes. The data set is classed as cell-based. As for the experimental part:
Adipogenic differentiation was carried out following a well-established protocol.[63]^,[142] Upon reaching approximately 70% confluence, cells were induced to differentiate (day 0) by replacing the culture medium with complete DMEM containing 10μg/mL insulin. Experimental groups received either EL244 (1μM or 10μΜ) or the standard adipogenic induction cocktail consisting of 1μM dexamethasone (DEX) and 0.5mM 3-isobutyl-1-methylxanthine (IBMX), as indicated. On day 3, the medium was replaced with complete DMEM supplemented with 10μg/mL insulin, with continued exposure to EL244 (1μM or 10μM) in the respective treatment groups. On day 6, the medium was refreshed with complete DMEM containing the corresponding concentrations of EL244.
Differentiated adipocytes were fixed with 10% formalin solution for 2 h, washed with 60% isopropanol, and stained with filtered 0.3% (w/v) Oil red O solution for 20 min. Following staining, cells were washed three times with dH2O to remove excess dye and observed using a bright-field microscope. Fow quantification, cells were destained with 100% isopropanol and lipid accumulation levels were quantified by Oil red O absorption at 500nm.

For a further data set, the system named is human PCLS. Description: Human PCLS with pro-fibrotic cocktail. Type of data set: cell-based. Particulars: 25 and 50 μΜ. As for the experimental part: hPCLS were prepared from tumour-free lung tissue obtained during surgical resection from a patient undergoing surgery for pulmonary adenocarcinoma (Subject ID: LB26-0020). The biopsy was provided by the Biobanque CRB-Tumorothèque de Nice, Biobanque CHU de Nice (BB-0033-00025; approved protocol # CSE 2022-EV34), collected after written informed consent, in accordance with the Declaration of Helsinki and applicable French regulations for human biological materials.
The lung biopsy was rinsed thoroughly with Hank’s balanced salt solution (HBSS, Sigma-Aldrich) supplemented with antibiotics. The tissue was then infused with a 2.5% low-melting agarose solution prepared in DMEM/F-10 containing antibiotics, maintained at 40°C, and rapidly cooled to solidify the agarose. 8 mm tissue punches were then excised and sectioned into 300 μm-thick slices using the Compresstome VF-300-0Z (Precisionary Instruments). Each hPCLS was transferred into an individual well of a 24-well plate containing 500 μL of culture medium supplemented with 1× antibiotic–antimycotic solution (penicillin, streptomycin, amphotericin B), 50 μg/mL gentamicin, 1× insulin-transferrin-selenium (ITS) supplement, and 0.1% FBS. Slices were incubated at 37°C in a humidified atmosphere with 5% CO2. The culture medium was replaced after several hours.
Fibrosis was induced by a pro-fibrotic cocktail (PFC; 5 ng/mL TGF-β1, […] PDGF-AB, 10 ng/mL TNF-a and 5 μM LPA 18:1), following a well-established protocol.[73] Individual PCLS were first incubated with the PFC for 48 h. After this initial exposure, the medium was renewed and PCLS were treated for an additional 72 h with either PFC alone or PFC supplemented with EL244 (25 μM or 50 μM). Untreated PCLS served as controls.

The subject of a further data set is LPA levels. As to the kind of experiment: LPA levels in BALF and plasma of BLM mice after inhaled EL244 (MS/MS). Type of data set: in vivo. As for the experimental part:
Plasma (50μL), BALF (300 μL) or homogenized lung tissue (10–50 mg) were mixed with ice-cold PBS spiked with the internal standard mixture (LPA-d9, Cayman) in a glass tube (total final volume 1mL). 2 mL of ice-cold chloroform and 1 mL of methanol was added in each sample, following by vortexing for 1 min and then centrifugation at 4°C for 5 min at 4000 g. The lower transparent organic phase (chloroform phase-contains the neutral lipids) was collected in a glass tube. The remaining aqueous phase (upper phase) was left on ice for 10 min and acidified (pH 3–4) with Formic Acid 10% in water. Then 1.5 mL chloroform was added followed by thorough mixing for 1 min and centrifugation at 4°C for 5 min at 2000 g. The lower organic phase was collected and neutralized to pH 6–7. The neutralized organic phase from the acid extraction were evaporated to dryness. After evaporation we redissolve in water/methanol (1:9) with 0.1% formic acid and run in the mass spec. All MS quantitation lipid standards were purchased from Cayman unless otherwise mentioned. All LPA species analyzed in this study were quantified using the multiple reaction monitoring (MRM) scanning method on an Waters-QQQ mass spectrometer. All data were acquired and analyzed using the Waters data analysis software. The LC separation was achieved using a Gemini 5U C18 column (Phenomenex, 5 μm, 50 × 4.6 mm) coupled to a Gemini guard column (Phenomenex, 4 × 3 mm). The LC solvents were as follows: buffer A, 85% CAN, 5% MeOH +0.1% formic acid +10% 10 mM ammonium formate buffer pH5; buffer B, 95:5 (v/v) ACN/MeOH +0.1% formic acid. A typical LC-run was 35 min, with the following solvent run sequence post injection: 0.35 mL/min 5% B for 5 min, linear gradient of B from 0 to 95% over 25 min, and re-equilibration with 0.5 mL/min of 5% B for 5 min. […] All the endogenous lipid species were quantified by measuring the area under the curve in comparison to the respective internal standard, and then normalized to the total protein content of the […] tissue. The following table presents the MRM used for LPA quantification.

In another data set the target is hERG (Homo sapiens, UniProt Q12809). Description: hERG inhibition. The data set is classed as biochemical. In general terms: Block of hERG is tested as a sign of cardiac risk.
hERG, sequence (Q12809 whole entry): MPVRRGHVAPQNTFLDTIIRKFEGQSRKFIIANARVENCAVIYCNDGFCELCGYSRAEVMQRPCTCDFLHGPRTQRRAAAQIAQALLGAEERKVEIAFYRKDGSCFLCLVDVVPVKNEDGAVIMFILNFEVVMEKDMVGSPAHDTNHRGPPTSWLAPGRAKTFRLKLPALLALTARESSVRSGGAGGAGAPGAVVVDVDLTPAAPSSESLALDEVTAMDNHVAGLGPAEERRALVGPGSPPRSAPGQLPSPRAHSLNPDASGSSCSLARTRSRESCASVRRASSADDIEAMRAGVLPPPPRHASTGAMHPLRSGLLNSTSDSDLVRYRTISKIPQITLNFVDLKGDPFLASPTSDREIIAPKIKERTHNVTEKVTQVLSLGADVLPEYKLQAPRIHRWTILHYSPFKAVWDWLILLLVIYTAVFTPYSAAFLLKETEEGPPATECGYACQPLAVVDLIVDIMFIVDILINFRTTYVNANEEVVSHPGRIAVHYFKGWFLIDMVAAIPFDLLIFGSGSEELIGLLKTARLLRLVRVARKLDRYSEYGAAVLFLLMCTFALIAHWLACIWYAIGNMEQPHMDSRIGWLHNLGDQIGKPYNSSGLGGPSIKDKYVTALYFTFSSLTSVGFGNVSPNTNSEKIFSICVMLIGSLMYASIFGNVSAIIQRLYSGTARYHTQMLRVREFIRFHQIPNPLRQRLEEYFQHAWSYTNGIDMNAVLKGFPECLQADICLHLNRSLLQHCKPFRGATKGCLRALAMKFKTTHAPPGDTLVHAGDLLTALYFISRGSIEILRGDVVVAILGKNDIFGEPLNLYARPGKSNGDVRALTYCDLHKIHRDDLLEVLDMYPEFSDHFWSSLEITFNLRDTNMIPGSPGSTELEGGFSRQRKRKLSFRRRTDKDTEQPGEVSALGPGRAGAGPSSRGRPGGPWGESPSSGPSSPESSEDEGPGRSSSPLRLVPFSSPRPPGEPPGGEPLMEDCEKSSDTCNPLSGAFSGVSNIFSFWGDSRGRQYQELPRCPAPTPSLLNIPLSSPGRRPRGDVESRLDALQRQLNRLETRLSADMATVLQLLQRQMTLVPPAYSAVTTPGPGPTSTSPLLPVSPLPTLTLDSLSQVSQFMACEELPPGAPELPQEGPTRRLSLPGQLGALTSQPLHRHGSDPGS

Regarding `O=C1NC(=O)C(Cc2ccc(OCCN3CCN(C(=O)OCc4cc(Cl)cc(Cl)c4)CC3)cc2)S1` (stereo not shown) [Compound 5, 3,5-dichlorobenzyl4-(2-(4-((2,4-dioxothiazolidin-5-yl)methyl)phenoxy)ethyl)piperazine-1-carboxylate], in data set [1], the “Col1a1 mRNA expression” value is listed as “decreasing”; the “Fn1 mRNA expression” value is listed as “decreasing”; the “Lung architecture, fibrotic lesions” value is recorded as “improved the lung architecture”.
A word on the IC50: it is the concentration at which inhibition is half-maximal. A word on the inhibition: it is the relative decrease from the control value, in per cent. For `O=C1NC(=O)C(Cc2ccc(OCCC3CCN(C(=O)OCc4cc(Cl)cc(Cl)c4)CC3)cc2)S1` (stereo not shown) [EL244, 3,5-dichlorobenzyl 4-(2-(4-((2,4-dioxothiazolidin-5-yl)methyl)phenoxy)ethyl)piperidine-1-carboxylate], the “Adipogenesis (oil red O lipid droplets)” value with 3T3-L1 (1 or 10 μM with insulin, compared with IBMX/DEX) is listed as “promoted adipogenesis dose responsively”. Besides, the “Expression of PPARγ target genes (Adipoq, Fabp4, CD36) and PPARγ” value in the data set with 3T3-L1 (RT-qPCR) is “induced the expression of several PPARγ target genes”. Besides, in the data set on human PCLS, the “Col1a1 and Acta2 mRNA expression” value is on record as “downregulation”; the “Development of fibrosis (histology)” value is listed as “prevented and/or attenuated the development of fibrosis”; the “PPARγ target gene expression” value is on record as “upregulated the expression of PPARγ target genes”. In the data set with LPA levels, the “LPA species in BALF” value is “All LPA species, except for 18:0, were found to be reduced in the BALF”; the “Plasma LPA levels” value is given as “no modulation of plasma LPA levels was detected”; the “Total LPA content in BALFs” value is reported as “found reduced”. The compound further showed an IC50 against hERG greater than 25 µM. At hERG (human, 25 μΜ), this compound gave an inhibition at 25 μM of roughly 12%.
